Half-life data for 28 molecules are collected here from patent US9682938B2, “Pyrazolone derivatives as nitroxyl donors” (Cardioxyl Pharmaceuticals, Inc., priority 2014, dated 2017).

Some results are limits rather than exact numbers.

The first series can be described thus: In vitro plasma stability, rat plasma. Type of series: in vitro ADME. To be noted: male, pH 7.4, 5 μM, 37° C., sampling 0-360 minutes, read-out: T1/2 Rat. The procedure: (§1) Certain compounds from Table 1 were tested for their stability in plasma. The assay system comprised plasma from rat, dog or human (at least 3 donors, male, pooled) at pH 7.4, and (ii) an anticoagulant (sodium heparin or sodium citrate). Each test compound (5 μM) was incubated in plasma at 37° C. on a THERMOMIXER® with shaking. Three samples (n=3) were taken at each of seven sampling time points: 0, 10, 30, 60, 90, 180 and 360 minutes. The samples were immediately combined with 3 volumes (i.e., 3 times the volume of plasma) of acetonitrile containing 1% formic acid and an internal standard to terminate the reaction. AB SCIEX API 3000 LC-MS/MS analysis of the test compounds was performed without a standard curve. Plasma half-lives (T1/2) of the test compounds were determined from graphs of the percent remaining values using the peak area response ratio.
Take `CCOc1cc(F)ccc1C1=NN(C)C(=O)C1(C)NO` (stereo not drawn) [Compound 62, 3-(2-ethoxy-4-fluorophenyl)-4-(hydroxyamino)-1,4-dimethyl-1H-pyrazol-5(4H)-one]: the half-life at 5 μM is 114 min.
The same measure, in the same setting: in the case of `CO/N=C(\C)C1(NO)C(=O)N(c2ccccc2)N=C1Sc1ccccc1` (stereo not drawn) [Compound 128, 4-(Hydroxyamino)-4-[1(methoxyimino)ethyl]-1-phenyl-3-(phenylsulfanyl)-4,5-dihydro-1H-pyrazol-5-one] it was 7 min.

A further series in a line: In vitro plasma stability, dog plasma. The series is classed as in vitro ADME. To be noted: male, pH 7.4, 5 μM, 37° C., sampling 0-360 minutes, read-out: T1/2 Dog. The procedure: as §1
Turning to `CC(C)N1N=C(c2ccccc2Cl)C(C)(NO)C1=O` (stereo not drawn) [Compound 8, 5-(2-chlorophenyl)-4-(hydroxyamino)-2-iso-propyl-4-methyl-2,4-dihydro-3H-pyrazol-3-one], the half-life at 5 μM was 170 min.
For the molecule `CO/N=C(\C)C1(NO)C(=O)N(c2ccccc2)N=C1C(C)C` (stereo not drawn) [Compound 16, 4-(hydroxyamino)-5-iso-propyl-4-(1-(methoxyimino)ethyl)-2-phenyl-2,4-dihydro-3H-pyrazol-3-one], the half-life at 5 μM was determined as 8 min.
The same measure, in the same setting: in the case of `CO/N=C(\C)C1(NO)C(=O)N(c2ccc(Br)cc2)N=C1C(C)C` (stereo not drawn) [Compound 17, 2-(4-bromophenyl)-4-(hydroxyamino)-5-iso-propyl-4-(1-(methoxyimino)ethyl)-2,4-dihydro-3H-pyrazol-3-one] it was < 1 min; in that of `CO/N=C(\C)C1(NO)C(=O)N(C)N=C1C1CC1` (stereo not drawn) [Compound 20, 5-cyclopropyl-4-(hydroxyamino)-4-(1-(methoxyimino)ethyl)-2-methyl-2,4-dihydro-3H-pyrazol-3-one], 20 min; in that of `CO/N=C(\C)C1(NO)C(=O)N(C(C)C)N=C1C(C)(C)C` (stereo not drawn) [Compound 28, 5-(tert-butyl)-4-(hydroxyamino)-2-iso-propyl-4-(1-(methoxyimino)ethyl)-2,4-dihydro-3H-pyrazol-3-one], 87 min.
Turning to `CC1(NO)C(=O)N(c2ccccc2)N=C1c1ccccc1F` (stereo not drawn) [Compound 29, 5-(2-fluorophenyl)-4-(hydroxyamino)-4-methyl-2-phenyl-2,4-dihydro-3H-pyrazol-3-one], the half-life at 5 μM turned out to be 58 min.
Same read-out and setting: the value for `CC1(NO)C(=O)N(c2ccc(Br)cc2)N=C1c1ccccc1Cl` (stereo not drawn) [Compound 44, 1-(4-bromophenyl)-3-(2-chlorophenyl)-4-(hydroxyamino)-4-methyl-1H-pyrazol-5(4H)-one] was 26 min; that for `CC1=NN(c2ccc(Br)cc2)C(=O)C1(NO)c1ccccc1` (stereo not drawn) [Compound 47, 1-(4-bromophenyl)-4-(hydroxyamino)-3-methyl-4-phenyl-1H-pyrazol-5(4H)-one] was 11 min; that for `CC1(NO)C(=O)N(c2ccc(Br)cc2)N=C1c1ccccc1` (stereo not drawn) [Compound 50, 1-(4-bromophenyl)-4-(hydroxyamino)-4-methyl-3-phenyl-1H-pyrazol-5(4H)-one] was 356 min.
For `CO/N=C(\C)C1(NO)C(=O)N(C)N=C1c1ccc(C(F)(F)F)cc1` (stereo not drawn) [Compound 52, 4-(hydroxyamino)-4-(1-(methoxyimino)ethyl)-1-methyl-3-(4-(trifluoromethyl)phenyl)-1H-pyrazol-5(4H)-one], the half-life at 5 μM was 8 min.
Consider `CN1N=C(c2cccc(Cl)c2)C(C)(NO)C1=O` (stereo not drawn) [Compound 54, 3-(3-chlorophenyl)-4-(hydroxyamino)-1,4-dimethyl-1H-pyrazol-5(4H)-one], for which the half-life at 5 μM stood at 159 min.
On the same count and under the same terms, in the case of `COc1ccccc1C1=NN(C)C(=O)C1(C)NO` (stereo not drawn) [Compound 55, 4-(hydroxyamino)-3-(2-methoxyphenyl)-1,4-dimethyl-1H-pyrazol-5(4H)-one] it was 116 min; in that of `CN1N=C(c2ccccc2OC(F)(F)F)C(C)(NO)C1=O` (stereo not drawn) [Compound 56, 4-(hydroxyamino)-1,4-dimethyl-3-(2-(trifluoromethoxy)phenyl)-1H-pyrazol-5(4H)-one], 69 min; in that of `CN1N=C(c2cccc(Cl)c2Cl)C(C)(NO)C1=O` (stereo not drawn) [Compound 57, 3-(2,3-dichlorophenyl)-4-(hydroxyamino)-1,4-dimethyl-1H-pyrazol-5(4H)-one], 15 min.
On to `CN1N=C(c2ccc(Cl)cc2Cl)C(C)(NO)C1=O` (stereo not drawn) [Compound 58, 3-(2,4-dichlorophenyl)-4-(hydroxyamino)-1,4-dimethyl-1H-pyrazol-5(4H)-one], for which the half-life at 5 μM came out at 19 min.
As to `CN1N=C(c2ccccc2C(F)(F)F)C(C)(NO)C1=O` (stereo not drawn) [Compound 60, 4-(hydroxyamino)-1,4-dimethyl-3-(2-(trifluoromethyl)phenyl)-1H-pyrazol-5(4H)-one], the half-life at 5 μM turned out to be 49 min.
Same read-out and setting: the value for `CC1(NO)C(=O)N(c2ccccc2)N=C1C(F)(F)F` (stereo not drawn) [Compound 61, 4-(hydroxyamino)-4-methyl-1-phenyl-3-(trifluoromethyl)-1H-pyrazol-5(4H)-one] was > 360 min; that for `CCOc1cc(F)ccc1C1=NN(C)C(=O)C1(C)NO` (stereo not drawn) [Compound 62, 3-(2-ethoxy-4-fluorophenyl)-4-(hydroxyamino)-1,4-dimethyl-1H-pyrazol-5(4H)-one] was 44 min; that for `CO/N=C(\C)C1(NO)C(=O)N(C)N=C1C(C)C` (stereo not drawn) [Compound 63, 4-(hydroxyamino)-3-isopropyl-4-(1-(methoxyimino)ethyl)-1-methyl-1H-pyrazol-5(4H)-one] was > 360 min.
Consider `CC1=NN(C)C(=O)C1(NO)c1ccc([S+](C)[O-])cc1` (stereo not drawn) [Compound 65, 4-(hydroxyamino)-1,3-dimethyl-4-(4-(methylsulfinyl)phenyl)-1H-pyrazaol-5(4H)-one], for which the half-life at 5 μM turned out to be 8 min.
On the same count and under the same terms, the value for `COc1ccc(C2(NO)C(=O)N(C)N=C2C)cc1C` (stereo not drawn) [Compound 76, 4-(Hydroxyamino)-4-(4-methoxy-3-methylphenyl)-1,3-dimethyl-4,5-dihydro-1H-pyrazol-5-one] was 21 min; that for `CN1N=C(c2ccc(C(C)(C)C)cc2)C(C)(NO)C1=O` (stereo not drawn) [Compound 91, 3-(4-tert-Butylphenyl)-4-(hydroxyamino)-1,4-dimethyl-4,5-dihydro-1H-pyrazol-5-one] was 226 min; that for `CN1N=C(c2ccc(C(=O)NCC(=O)O)cc2)C(C)(NO)C1=O` (stereo not drawn) [Compound 95, 2-({4-[4-(Hydroxyamino)-1,4-dimethyl-5-oxo-4,5-dihydro-1H-pyrazol-3-yl]phenyl}formamido)acetic acid] was 120 min.
As to `CC1=NN(C)C(=O)C1(NO)c1cccc(F)c1` (stereo not drawn) [Compound 96, 4-(3-Fluorophenyl)-4-(hydroxyamino)-1,3-dimethyl-4,5-dihydro-1H-pyrazol-5-one], the half-life at 5 μM was 6 min.
Take `CC1=NN(C)C(=O)C1(NO)c1cccc(Cl)c1` (stereo not drawn) [Compound 99, 4-(3-Chlorophenyl)-4-(hydroxyamino)-1,3-dimethyl-4,5-dihydro-1H-pyrazol-5-one]: the half-life at 5 μM came to 4 min.
The same measure, in the same setting: in the case of `CC1=NN(C)C(=O)C1(NO)/C(C)=N/Oc1ccccc1` (stereo not drawn) [Compound 102, 4-(Hydroxyamino)-1,3-dimethyl-4-[1-(phenoxyimino)ethyl]-4,5-dihydro-1H-pyrazol-5-one] it was < 1 min.
On to `CC1=NN(C)C(=O)C1(NO)/C(C)=N/OCc1ccccc1` (stereo not drawn) [Compound 103, 4-(Hydroxyamino)-1,3-dimethyl-4-[1-(benzyloxyimino)ethyl]-4,5-dihydro-1H-pyrazol-5-one], for which the half-life at 5 μM came to 3 min.
For `CO/N=C(\C)C1(NO)C(=O)N(c2ccccc2)N=C1Sc1ccccc1` (stereo not drawn) [Compound 128, 4-(Hydroxyamino)-4-[1(methoxyimino)ethyl]-1-phenyl-3-(phenylsulfanyl)-4,5-dihydro-1H-pyrazol-5-one], the half-life at 5 μM is 3 min.
